Assay results: PubChem BioAssay AID624359 (Broad Institute, 2012)
Inconclusive results are not listed. Calls of active or inactive are those of the source.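 The calls were made as follows: active = fitted curve reaches 35% inhibition at a concentration up to twice the top valid dose; inconclusive = no clear call, values can overlap the other calls; inactive = the rest, including signal moving the opposite way.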

Columns and labels:
[1] = system: HEK293 LMP1 TES2 NF-kB luciferase reporter, 16 h; experiment: inhibitors of LMP1-driven NF-kB reporter, dose response, cell-based, EBV LMP1, luciferase, dry powder (AID 624359)
[2] = as above; settings: HEK293 LMP1 TES2 NF-kB luciferase reporter, 16 h

C/C(=N\NC(=S)N1CC2CCC(CC2)C1)c1ccccn1
AC35 [1]: 5.42 µM

c1ccc(-c2cn3c4c(sc3n2)CCCC4)cc1
activity change, negative = inhibition ([2]; at 26 µM (top of the series)): 6.83% (inactive)

O=c1[nH]c(Nc2nc3ccccc3o2)nc2c1CCCC2
activity change, negative = inhibition ([2]; at 26 µM (top of the series)): 2.84% (inactive)

CCN1CCN(C(c2cccnc2)c2cc(Cl)c3cccnc3c2O)CC1 (stereo not given)
AC35 [1]: 7.4 µM

Cc1ccc(S(=O)(=O)NC(CC(C)C)C(=O)NCC(c2ccco2)N2CCCCC2)cc1 (stereo not given)
activity change, negative = inhibition ([2]; at 26 µM (top of the series)): -1.92% (inactive)

C[C@@H]1CCCCO[C@H](CN(C)C(=O)c2ccccc2)[C@H](C)CN([C@@H](C)CO)C(=O)c2cc(NC(=O)Nc3ccc(F)cc3)ccc2O1
activity change, negative = inhibition ([2]; at 26 µM (top of the series)): -13.1% (inactive)

CC(=O)Nc1nc(C)c(-c2csc(Nc3ccc(O)cc3)n2)s1
activity change, negative = inhibition ([2]; at 26 µM (top of the series)): 83.3% (inactive)

C[C@H](CO)N1C[C@H](C)[C@H](CN(C)C(=O)Nc2ccc(C(F)(F)F)cc2)OCCCC[C@H](C)Oc2ccc(NC(=O)Nc3ccc(F)cc3)cc2C1=O
AC35 [1]: 16.6 µM

COCCCNC(=O)C(C)Sc1nnc2c3cc(C)ccc3n(Cc3ccccc3F)c2n1 (stereo not given)
AC35 [1]: 25.8 µM

C/C(=N\NC(=S)N1CCCCC1)c1cccc(C)n1
AC35 [1]: 0.492 µM

C[C@@H]1CCCCO[C@H](CN(C)CC2CCCCC2)[C@H](C)CN([C@@H](C)CO)C(=O)c2cc(NC(=O)NC3CCCCC3)ccc2O1
activity change, negative = inhibition ([2]; at 26 µM (top of the series)): -3.54% (inactive)

C[C@@H]1CCCCO[C@@H](CN(C)Cc2ccccc2)[C@H](C)CN([C@H](C)CO)C(=O)c2cc(NC(=O)Nc3ccc4c(c3)OCO4)ccc2O1
activity change, negative = inhibition ([2]; at 26 µM (top of the series)): -6.74% (inactive)

Cc1c(NC(=O)c2cccc(NC(=O)COc3ccccc3C#N)c2)c(=O)n(-c2ccccc2)n1C
activity change, negative = inhibition ([2]; at 26 µM (top of the series)): 47.5% (inactive)

CC12CCC3C(CC=C4CC(O)CCC43CO)C1CCC2OC(=O)c1ccccc1 (stereo not given)
AC35 [1]: 6.56 µM

C/C(=N\NC(=S)Nc1cccc(C)c1)c1ccccn1
activity change, negative = inhibition ([2]; at 26 µM (top of the series)): 74.3% (inactive)

CCCSc1nnc2c3ccccc3n(Cc3ccccc3)c2n1
AC35 [1]: 3.4 µM

CCC(Sc1nnc2c3ccccc3n(Cc3ccc(Br)cc3)c2n1)C(=O)NCCCN1CCOCC1 (stereo not given)
AC35 [1]: 5.65 µM

C[C@H](CO)N1C[C@H](C)[C@@H](CN(C)Cc2ccc(-c3ccccc3)cc2)Oc2ccc(NC(=O)Nc3cccc4ccccc34)cc2CC1=O
AC35 [1]: 4.13 µM

COc1ccc2nc(Nc3nc(C)c(CCC(C)C)c(=O)[nH]3)nc(C)c2c1
activity change, negative = inhibition ([2]; at 26 µM (top of the series)): 42.5% (inactive)

Fc1ccc2c(c1)c1nnc(SCCN3CCOCC3)nc1n2Cc1ccccc1
AC35 [1]: 10.1 µM

C[C@H](CO)N1C[C@H](C)[C@@H](CN(C)CC2CC2)OCCCC[C@H](C)Oc2ccc(NC(=O)Nc3cccc4ccccc34)cc2C1=O
AC35 [1]: 0.541 µM

C/C=C/C/C=C/CCC(=O)[C@H]1O[C@H]1C(N)=O
AC35 [1]: 13.2 µM

S=C(NCc1ccccn1)N/N=C/c1ccccn1
AC35 [1]: 5.41 µM

COc1ccc2[nH]c(C(=O)N/N=C/c3ccc(O)cc3O)cc2c1
AC35 [1]: 9.11 µM

Cc1ccc(S(=O)(=O)Nc2ccc3c(c2)C(=O)N([C@@H](C)CO)C[C@H](C)[C@@H](CN(C)C(=O)CCC(F)(F)F)OCCCC[C@H](C)O3)cc1
AC35 [1]: 0.619 µM

O=c1[nH]c(=O)n([C@H]2C[C@H](O)[C@@H](CO)O2)cc1C(F)(F)F
AC35 [1]: 8.74 µM

CCc1sc(C(=O)Nc2ncccc2O)cc1C
AC35 [1]: 20.8 µM

CSC(=S)N/N=C(\C)c1cccc(C)n1
activity change, negative = inhibition ([2]; at 26 µM (top of the series)): 8.74% (inactive)

Nc1ccn([C@@H]2O[C@H](CO)[C@@H](O)C2O)c(=O)n1 (stereo not given in full)
AC35 [1]: 27.5 µM

COc1ccccc1NC(=S)N/N=C(\C)c1ccccn1
activity change, negative = inhibition ([2]; at 26 µM (top of the series)): -20.4% (inactive)

C/C(=N\NC(=S)N1CCC1)c1ccccn1
AC35 [1]: 1.33 µM

O=C(CCc1ccccc1)NC(c1cccs1)c1cc(Cl)c2cccnc2c1O (stereo not given)
AC35 [1]: 43.9 µM

CC(C)=CCN(C(=O)C#Cc1ccccc1)[C@H](CO)c1ccccc1
AC35 [1]: 3.79 µM

c1ccc(Cn2c3ccccc3c3nnc(SCCN4CCCCC4)nc32)cc1
AC35 [1]: 11 µM

C/C(=N\NC(=S)Nc1ccccc1Cl)c1ccccn1
activity change, negative = inhibition ([2]; at 26 µM (top of the series)): 51.4% (inactive)

CC1=C(C(=O)OCc2ccc3c(c2)OCO3)C(c2ccc(F)cc2)NC(=O)N1 (stereo not given)
activity change, negative = inhibition ([2]; at 26 µM (top of the series)): -13.4% (inactive)

O=C1/C(=C/c2ccncc2)SC(=S)N1Cc1ccccc1
AC35 [1]: 29 µM

C/C(=N\NC(=S)N1CCCC1)c1ccccn1
AC35 [1]: 0.884 µM

COc1ccccc1[C@]1(C)ON(c2ccccc2C(F)(F)F)C1=O
AC35 [1]: 7.88 µM

COc1ccc(C(=O)Nc2ccc3[nH]ccc3c2)cc1
activity change, negative = inhibition ([2]; at 26 µM (top of the series)): 13.6% (inactive)

C=C1C[C@]23C[C@@]1(O)CC[C@H]2[C@@]12C=C[C@H](O)[C@@](C)(C(=O)O1)[C@H]2[C@@H]3C(=O)O
activity change, negative = inhibition ([2]; at 15 µM (top of the series)): -4.73% (inactive)

COc1cccc(/C=N/Nc2ncnc3c2ncn3Cc2ccccc2)c1O
AC35 [1]: 43.4 µM

C=CCN1Cc2ccccc2[C@@H]2OC(c3ccc(OCCCO)cc3)=N[C@]2(CCC(=O)OC(C)(C)C)C1=O
activity change, negative = inhibition ([2]; at 26 µM (top of the series)): 3.78% (inactive)

C[C@@H]1CCCCO[C@H](CN(C)C(=O)CCC(F)(F)F)[C@H](C)CN([C@@H](C)CO)C(=O)c2cc(NC(=O)CCC(F)(F)F)ccc2O1
activity change, negative = inhibition ([2]; at 26 µM (top of the series)): -12.3% (inactive)

S=C(N/N=C(\c1ccccc1)c1ccccn1)N(Cc1ccccn1)Cc1ccccn1
AC35 [1]: 6 µM

C/C(=N\NC(=S)N1CCN(C2CCCCCC2)CC1)c1ccccn1
activity change, negative = inhibition ([2]; at 12 µM (top of the series)): 33.5% (inactive)

C[C@@H]1CN([C@@H](C)CO)C(=O)c2cc(NC(=O)Nc3ccc4c(c3)OCO4)ccc2O[C@H]1CN(C)CC1CCCCC1
AC35 [1]: 0.738 µM

C/C(=N\NC(=S)N1CCN(c2ccccn2)CC1)c1ccccn1
AC35 [1]: 10.5 µM

CCc1ccc(/C=C/C(=O)C2C(=O)c3ccccc3C2=O)cc1
activity change, negative = inhibition ([2]; at 26 µM (top of the series)): 28.8% (inactive)

CSc1nc(-c2ccc(C)cc2)nc(C(Cl)Cl)n1
activity change, negative = inhibition ([2]; at 26 µM (top of the series)): 12% (inactive)

C[C@@H]1CN([C@@H](C)CO)C(=O)c2cccc(NC(=O)Nc3cccc4ccccc34)c2O[C@H]1CN(C)C(=O)Nc1ccc(C(F)(F)F)cc1
activity change, negative = inhibition ([2]; at 26 µM (top of the series)): 26.9% (inactive)

COc1ccc(-c2csc3ncnc(NCCN4CCOCC4)c23)cc1
activity change, negative = inhibition ([2]; at 26 µM (top of the series)): 9.04% (inactive)

CNC[C@@H]1Oc2ccc(NS(=O)(=O)c3cn(C)cn3)cc2CC(=O)N([C@H](C)CO)C[C@@H]1C
activity change, negative = inhibition ([2]; at 26 µM (top of the series)): 7.33% (inactive)

C/C(=N\NC(=S)N1CC2CCC(CC2)C1)c1ccncn1
activity change, negative = inhibition ([2]; at 26 µM (top of the series)): -1.33% (inactive)

Cc1ccc(NC(=O)C2CCN(S(=O)(=O)c3ccc4c(c3)NC(=O)C(C)S4)CC2)cc1Cl (stereo not given)
AC35 [1]: 4.01 µM

CCn1c2ccccc2c2cc(/C=N/n3cnnc3)ccc21
activity change, negative = inhibition ([2]; at 26 µM (top of the series)): 30.3% (inactive)

CCc1ccc(/C=C2\SC(=S)N(CCCC(=O)Nc3ccccn3)C2=O)cc1
activity change, negative = inhibition ([2]; at 26 µM (top of the series)): 9.57% (inactive)

C[C@@H]1CN([C@@H](C)CO)C(=O)c2cc(NC(=O)Nc3ccc(C(F)(F)F)cc3)ccc2O[C@@H](C)CCCCO[C@H]1CN(C)Cc1ccc(C(F)(F)F)cc1
activity change, negative = inhibition ([2]; at 26 µM (top of the series)): 24% (inactive)

C[C@H](CO)N1C[C@H](C)[C@@H](CN(C)CC2CCCCC2)OCCCC[C@H](C)Oc2ccc(NC(=O)Nc3cccc4ccccc34)cc2C1=O
activity change, negative = inhibition ([2]; at 26 µM (top of the series)): 23.2% (inactive)

O=C(Nc1cc(C(F)(F)F)cc(C(F)(F)F)c1)Nc1cnn(-c2ccc([N+](=O)[O-])cc2)c1C(F)(F)F
AC35 [1]: 40.7 µM

CC1CN(C(=O)CSc2nnc3c4ccccc4n(Cc4cccc(Cl)c4)c3n2)CCN1C(=O)c1ccccc1F (stereo not given)
activity change, negative = inhibition ([2]; at 26 µM (top of the series)): 42.2% (inactive)

Oc1cccc(C(Nc2nccs2)c2ccc3cccnc3c2O)c1 (stereo not given)
activity change, negative = inhibition ([2]; at 26 µM (top of the series)): 23.7% (inactive)

O=C(CSc1nnc2c3ccccc3n(Cc3ccccc3)c2n1)NCc1ccco1
activity change, negative = inhibition ([2]; at 26 µM (top of the series)): 12.9% (inactive)

C[C@@H]1CCCCO[C@H](CN(C)S(=O)(=O)c2ccccc2)[C@@H](C)CN([C@@H](C)CO)C(=O)c2cc(N(C)C)ccc2O1
activity change, negative = inhibition ([2]; at 26 µM (top of the series)): -2.27% (inactive)

COc1ccc(-c2cc3nc4n(c(=O)c3s2)CCC4)cc1
activity change, negative = inhibition ([2]; at 26 µM (top of the series)): 20.7% (inactive)
